# Measured values taken from US20230365592A1 (Agios Pharmaceuticals, Inc., priority 2022, published 2023).
# Biological target: T1, human PAH with the R408W mutation (Homo sapiens, UniProt P00439, R408W)
# T1 construct: expressed in transfected cells
# T1 sequence (P00439 1-452 R408W): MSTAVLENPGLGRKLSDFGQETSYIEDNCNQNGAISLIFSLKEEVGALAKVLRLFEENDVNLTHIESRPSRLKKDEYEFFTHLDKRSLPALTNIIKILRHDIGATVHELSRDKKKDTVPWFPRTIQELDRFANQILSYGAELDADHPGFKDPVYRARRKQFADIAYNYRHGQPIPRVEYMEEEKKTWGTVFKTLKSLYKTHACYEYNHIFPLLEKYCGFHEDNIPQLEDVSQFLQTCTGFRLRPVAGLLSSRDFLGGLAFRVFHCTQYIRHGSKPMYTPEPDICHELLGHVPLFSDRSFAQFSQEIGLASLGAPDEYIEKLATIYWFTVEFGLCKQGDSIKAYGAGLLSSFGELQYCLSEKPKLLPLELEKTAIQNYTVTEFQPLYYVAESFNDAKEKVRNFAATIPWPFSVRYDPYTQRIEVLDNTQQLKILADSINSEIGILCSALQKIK
# Assay: Cell Based Phenylalanine Flux Assay;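 further: after compound treatment, cells received sepiapterin plus isotope-labelled Phenylalanine for 4 hours, then labelled Tyrosine in the medium was quantified, 10-point 2-fold dilution series run in duplicate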
# Details: A375 cells expressing R408W PAH; 24 hrs with compound, then 20 µM sepiapterin and 800 µM 13C9,15N-Phenylalanine for 4 hours; 13C-Tyrosine by LC-MS; average where tested multiple times; read-out: AC50
# Method: Compounds were resuspended in DMSO, and 2-fold serial dilutions were performed to generate a 10-point dose curve. Compounds were added to plated cells in a total volume of 100 µl, and a final DMSO concentration of 0.5%. Each compound was tested in duplicate. Following compound addition, cells were placed in a 5% CO2, 37° C. tissue culture incubator for 24 hrs. After the incubation period, 20 µM sepiapterin and 800 µM 13C9,15N-Phenylalanine were added. After 4 hours, cell media was removed. An aliquot of 10 µl of cell media was combined with 200 µl of extraction buffer (80% acetonitrile/20% H2O) for each well. Determination of ^13C-Tyrosine concentration was assessed by liquid chromatography mass spectrometry.
# Where a compound was tested multiple times, the average value of the tests is reported.
row,AC50 [nM],Compound
1,> 5000,O=C(C1CCC1)N1CCc2[nH]cnc2C1c1cc2ccccn2n1 (centres unmarked)
2,1000 to 5000,Cc1cccn2nc(C3c4nc[nH]c4CCN3c3nnc(C(=O)N(C)C)o3)cc12 (centres unmarked)
3,1000 to 5000,COCc1ccc2c(C(=O)N3CCc4[nH]cnc4C3c3cc4c(OC)cccn4n3)cnn2c1 (centres unmarked)
4,1000 to 5000,Cc1cccn2nc(C3c4nc[nH]c4CCN3c3nnc(-c4ccncn4)o3)cc12 (centres unmarked)
5,1000 to 5000,O=C(c1cnn2cc(N3CCOCC3)ccc12)N1CCc2[nH]cnc2C1c1cc2c(F)cccn2n1 (centres unmarked)
6,1000 to 5000,Cc1nnc(C(=O)N2CCc3[nH]cnc3C2c2cc3cccc(F)n3n2)o1 (centres unmarked)
7,1000 to 5000,O=C(C1CC1)N1CCc2[nH]cnc2C1c1cc2ccccn2n1 (centres unmarked)
8,1000 to 5000,Cc1nnc(N2CCc3[nH]cnc3C2c2cc3cccc(C(F)(F)F)n3n2)o1 (centres unmarked)
9,1000 to 5000,CC(C)(C)c1nnc(N2CCc3[nH]cnc3C2c2cc3ccccn3n2)o1 (centres unmarked)

row,Compound,AC50 [nM]
1,"Fc1cccn2nc(C3c4nc[nH]c4CCN3c3nnc(-c4cccnc4)o3)cc12 (single isomer, unassigned)",1000 to 5000
2,"Cc1nnc(C(=O)N2CCc3[nH]cnc3[C@H]2c2cc3cccc(C(F)F)n3n2)o1 (single isomer, unassigned)",1000 to 5000
3,"Cn1cc(-c2nnc(C(=O)N3CCc4[nH]cnc4[C@@H]3c3cc4cc(F)ccn4n3)o2)cn1 (single isomer, unassigned)",1000 to 5000
4,O=C(c1nnc(-c2ccccn2)o1)N1CCc2[nH]cnc2C1c1cc2cc(C(F)(F)F)ccn2n1 (centres unmarked),1000 to 5000

# Same assay, conditions: A375 cells expressing human PAH R408W; 24 hrs compound incubation; 13C-Tyrosine by LC-MS; average where tested multiple times; read-out: AC50
row,AC50 [nM],Compound
1,> 5000,"Cc1cccn2nc([C@H]3c4nc[nH]c4CCN3c3nnc(-c4c(F)cccc4F)o3)cc12 [Example 1844, (R)-2-(2,6-difluorophenyl)-5-(4-(4-methylpyrazolo[1,5-a]pyridin-2-yl)-6,7-dihydro-1H-imidazo[4,5-c]pyridin-5(4H)-yl)-1,3,4-oxadiazole]"
2,< 500,"O=C(c1nnc(-c2ccn(C(F)(F)F)n2)o1)N1CCc2[nH]cnc2[C@H]1c1cc2c(C3CC3)cccn2n1 [Example 1880, (S)-(4-(4-cyclopropylpyrazolo[1,5-a]pyridin-2-yl)-1,4,6,7-tetrahydro-5H-imidazo[4,5-c]pyridin-5-yl)(5-(1-(trifluoromethyl)-1H-pyrazol-3-yl)-1,3,4-oxadiazol-2-yl)methanone]"
3,> 5000,"O=C(c1nnc(C2CC2)s1)N1CCc2[nH]cnc2[C@@H]1c1cc2c(F)cccn2n1 [Example 1992, (R)-(5-cyclopropyl-1,3,4-thiadiazol-2-yl)(4-(4-fluoropyrazolo[1,5-a]pyridin-2-yl)-1,4,6,7-tetrahydro-5H-imidazo[4,5-c]pyridin-5-yl)methanone]"
4,1000 to 5000,"CC(C)(O)c1ncc(C(=O)N2CCc3[nH]cnc3[C@H]2c2cc3c(F)cccn3n2)o1 [Example 2382, (S)-(4-(4-fluoropyrazolo[1,5-a]pyridin-2-yl)-6,7-dihydro-1H-imidazo[4,5-c]pyridin-5(4H)-yl)(2-(2-hydroxypropan-2-yl)oxazol-5-yl)methanone]"
5,> 5000,"Cc1cccnc1-c1nnc(N2CCc3[nH]cnc3[C@@H]2c2cc3c(C(C)C)cccn3n2)o1 [Example 2284, (R)-2-(4-(4-isopropylpyrazolo[1,5-a]pyridin-2-yl)-1,4,6,7-tetrahydro-5H-imidazo[4,5-c]pyridin-5-yl)-5-(3-methylpyridin-2-yl)-1,3,4-oxadiazole]"

# Same assay, conditions: A375 cells expressing human R408W PAH; 24 hrs compound incubation; 13C-Tyrosine by LC-MS; average where tested multiple times; read-out: AC50
row,Compound,AC50 [nM]
1,"O=C(CC1CC1)N1CCc2[nH]cnc2[C@@H]1c1cc2ccccn2n1 [Example 615, (R)-2-cyclopropyl-1-(4-(pyrazolo[1,5-a]pyridin-2-yl)-6,7-dihydro-1H-imidazo[4,5-c]pyridin-5(4H)-yl)ethanone]",1000 to 5000
2,"(S)-(5-(2-fluoropropan-2-yl)-1,3.4-oxadiazol-2-yl)(4-(7-fluoropyrazolo[1,5-a]pyridin-2-yl)-6,7-dihydro-1H-imidazo[4,5-c(pyridin-5(4H)-yl)methanone [Example 1256]",< 500

# Other lines, results leading:
row,AC50 [nM],Compound
1,1000 to 5000,"Cn1nc(C(F)(F)F)nc1C(=O)N1CCc2[nH]cnc2[C@@H]1c1cc2c(Cl)cccn2n1 [Example 1053, (R)-(4-(4-chloropyrazolo[1,5-a]pyridin-2-yl)-6,7-dihydro-1H-imidazo[4,5-c]pyridin-5(4H)-yl)(1-methyl-3-(trifluoromethyl)-1H-1,2,4-triazol-5-yl)methanone]"
2,< 500,"CC(C)c1nnc(C(=O)N2CCc3[nH]cnc3[C@H]2c2cc3c(C(F)(F)F)cccn3n2)o1 [Example 1486, (S)-(5-isopropyl-1,3,4-oxadiazol-2-yl)(4-(4-(trifluoromethyl)pyrazolo[1,5-a]pyridin-2-yl)-6,7-dihydro-1H-imidazo[4,5-c]pyridin-5(4H)-yl)methanone]"
3,1000 to 5000,"O=C(c1nnc(-c2ccn(C(F)(F)F)n2)o1)N1CCc2[nH]cnc2[C@@H]1c1cc2cccc(F)n2n1 [Example 1475, (R)-(4-(7-fluoropyrazolo[1,5-a]pyridin-2-yl)-6,7-dihydro-1H-imidazo[4,5-c]pyridin-5(4H)-yl)(5-(1-(trifluoromethyl)-1H-pyrazol-3-yl)-1,3,4-oxadiazol-2-yl)methanone]"
4,< 500,"Cc1c(-c2nnc(C(=O)N3CCc4[nH]cnc4[C@H]3c3cc4c(C(F)(F)F)cccn4n3)o2)cnn1C [Example 1204, (S)-(5-(1,5-dimethyl-1H-pyrazol-4-yl)-1,3,4-oxadiazol-2-yl)(4-(4-(trifluoromethyl)pyrazolo[1,5-a]pyridin-2-yl)-6,7-dihydro-1H-imidazo[4,5-c]pyridin-5(4H)-yl)methanone]"
5,1000 to 5000,"Cn1cc(-c2nc(C(F)F)c(C(=O)N3CCc4[nH]cnc4[C@@H]3c3cc4c(F)cccn4n3)o2)cn1 [Example 903, (R)-(4-(difluoromethyl)-2-(1-methyl-1H-pyrazol-4-yl)oxazol-5-yl)(4-(4-fluoropyrazolo[1,5-a]pyridin-2-yl)-6,7-dihydro-1H-imidazo[4,5-c]pyridin-5(4H)-yl)methanone]"
6,1000 to 5000,"CC1(c2nnc(C(=O)N3CCc4[nH]cnc4[C@@H]3c3cc4c(Cl)cccn4n3)o2)CC1 [Example 1320, (R)-(4-(4-chloropyrazolo[1,5-a]pyridin-2-yl)-6,7-dihydro-1H-imidazo[4,5-c]pyridin-5(4H)-yl)(5-(1-methylcyclopropyl)-1,3,4-oxadiazol-2-yl)methanone]"
7,< 500,"O=C(c1cnn2cc(C3CC3)ccc12)N1CCc2[nH]cnc2[C@H]1c1cc2c(Cl)cccn2n1 [Example 1768, (S)-(4-(4-chloropyrazolo[1,5-a]pyridin-2-yl)-6,7-dihydro-1H-imidazo[4,5-c]pyridin-5(4H)-yl)(6-cyclopropylpyrazolo[1,5-a]pyridin-3-yl)methanone]"
8,1000 to 5000,"O=C(c1nnc(-c2ncccn2)o1)N1CCc2[nH]cnc2[C@@H]1c1cc2cccc(Cl)n2n1 [Example 1392, (R)-(4-(7-chloropyrazolo[1,5-a]pyridin-2-yl)-6,7-dihydro-1H-imidazo[4,5-c]pyridin-5(4H)-yl)(5-(pyrimidin-2-yl)-1,3,4-oxadiazol-2-yl)methanone]"
9,1000 to 5000,"CC1(c2nnc(C(=O)N3CCc4[nH]cnc4[C@@H]3c3cc4cccc(Cl)n4n3)o2)CC1 [Example 1297, (R)-(4-(7-chloropyrazolo[1,5-a]pyridin-2-yl)-6,7-dihydro-1H-imidazo[4,5-c]pyridin-5(4H)-yl)(5-(1-methylcyclopropyl)-1,3,4-oxadiazol-2-yl)methanone]"
